From ChEMBL document CHEMBL4229403, “Protein Arginine Methyltransferase 5 (PRMT5) as an Anticancer Target and Its Inhibitor Discovery” (J Med Chem, 2018) come the findings set out here.

Molecules are shown by their SMILES.

In data set [1] the test system is Z-138. As to the kind of experiment: Antitumor activity against human Z138 cells xenografted in SCID mouse assessed as tumor growth inhibition at 200 mg/kg, po BID administered for 21 days. The format is functional. The settings on record: Z-138, po, 504 h, read-out: TGI.
A short description of data set [2]: Volume of distribution in mouse at 2 mg/kg, iv. The format is ADME, organism-based. As to conditions: in vivo.
Data set [3] deals with Maver1. As to the kind of experiment: Antitumor activity against human Maver1 cells xenografted in SCID mouse assessed as tumor growth inhibition at 200 mg/kg, po BID administered for 21 days. In kind it is functional. As to conditions: 504 h, read-out: TGI.
Data set [4] is described as follows: Plasma clearance in mouse at 2 mg/kg, iv. The format is ADME, organism-based.
Data set [5] can be described thus: Oral bioavailability in mouse at 10 mg/kg. The format is ADME, organism-based. As to conditions: in vivo.
Data set [6] has as its target T1, Protein arginine N-methyltransferase 5 (Homo sapiens, UniProt O14744). As to the kind of experiment: Inhibition of human PRMT5 expressed in insect cells co-expressing His-tagged MEP50 using Ser-Gly-Arg-Gly- Lys-Gly-Gly-Lys-Gly-Leu-Gly-Lys-Gly-Gly-Ala-Lys-Arg-His-Arg-Lys-Val-NH2 peptide as substrate after 4 hrs in presence of SAM by Transcreene EPIGEN methyltransferase assays.

The nature of data set [7]: Antiproliferative activity against human TH2 cells by trypan blue exclusion assay. In kind it is functional, cell-based.
Data set [8] in a line: Antiproliferative activity against human Th1 cells by trypan blue exclusion assay. In kind it is functional, cell-based.
Data set [9] addresses T1, Protein arginine N-methyltransferase 5. The experiment in a line: Inhibition of PRMT5 (unknown origin) at 50 uM by radioactive methylation assay.
Data set [10] deals with PRMT5/MEP50 complex (Homo sapiens) (UniProt O14744+Q9BQA1). As to the kind of experiment: Inhibition of human N-terminal FLAG-tagged PRMT5 (2 to end)/human N-terminal His-tagged MEP50 (2 to end) expressed in HEK293 cells at 50 uM using biotinylated H4 derived peptide as substrate preincubated for 15 mins followed by substrate addition measured after 60 mins ibn presence of [3H]SAM by liquid scintillation counting.

For data set [11], the system named is JeKo-1. As to the kind of experiment: Antiproliferative activity against human JeKo1 cells after 3 days by cell titer-glo luminescent cell viability assays. The settings on record: JeKo-1, 72 h. In kind it is functional, cell-based. On the technique in general: Cellular ATP, detected with luciferase, serves as a proxy for viable cell number.
Data set [12] deals with Maver1. The experiment in a line: Antiproliferative activity against human Maver1 cells after 3 days by cell titer-glo luminescent cell viability assays. The settings on record: Maver1, 72 h. The format is functional, cell-based.
Data set [13] relates to Z-138. As to the kind of experiment: Antiproliferative activity against human Z138 cells after 3 days by cell titer-glo luminescent cell viability assays. The format is functional, cell-based. The settings on record: Z-138, 72 h.
Data set [14] addresses T1, Protein arginine N-methyltransferase 5. As to the kind of experiment: Inhibition of PRMT5 (unknown origin) using H4R3 as substrate by HTRF assay. (Time-resolved FRET reads energy transfer from a long-lived donor to a nearby acceptor.)
The target of data set [15] is PRMT5/MEP50 complex (Homo sapiens, UniProt O14744). As to the kind of experiment: Inhibition of human N-terminal FLAG-tagged PRMT5 (2 to end)/human N-terminal His-tagged MEP50 (2 to end) expressed in HEK293 cells using biotinylated H4 derived peptide as substrate preincubated for 15 mins followed by substrate addition measured after 60 mins in presence of [3H]SAM by liquid scintillation counting. In kind it is cell-based.
Chain of PRMT5/MEP50 complex (O14744 whole entry): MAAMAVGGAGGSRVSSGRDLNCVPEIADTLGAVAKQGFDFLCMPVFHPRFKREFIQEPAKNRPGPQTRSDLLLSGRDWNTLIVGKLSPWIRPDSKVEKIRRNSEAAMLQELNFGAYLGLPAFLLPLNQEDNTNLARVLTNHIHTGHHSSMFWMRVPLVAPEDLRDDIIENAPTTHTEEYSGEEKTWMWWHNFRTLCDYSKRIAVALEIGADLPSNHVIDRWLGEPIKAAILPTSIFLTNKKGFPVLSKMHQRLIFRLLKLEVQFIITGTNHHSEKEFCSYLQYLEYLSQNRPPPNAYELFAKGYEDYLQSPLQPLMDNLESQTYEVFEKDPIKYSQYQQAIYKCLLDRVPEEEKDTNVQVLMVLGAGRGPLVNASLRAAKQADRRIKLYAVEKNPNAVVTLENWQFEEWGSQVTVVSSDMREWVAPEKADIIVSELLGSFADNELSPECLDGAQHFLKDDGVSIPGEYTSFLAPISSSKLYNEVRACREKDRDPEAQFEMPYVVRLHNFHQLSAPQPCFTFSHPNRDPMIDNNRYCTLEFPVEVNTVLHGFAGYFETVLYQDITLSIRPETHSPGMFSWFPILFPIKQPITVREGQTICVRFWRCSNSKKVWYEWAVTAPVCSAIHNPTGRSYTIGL
Chain of PRMT5/MEP50 complex (Q9BQA1 whole entry, further chain): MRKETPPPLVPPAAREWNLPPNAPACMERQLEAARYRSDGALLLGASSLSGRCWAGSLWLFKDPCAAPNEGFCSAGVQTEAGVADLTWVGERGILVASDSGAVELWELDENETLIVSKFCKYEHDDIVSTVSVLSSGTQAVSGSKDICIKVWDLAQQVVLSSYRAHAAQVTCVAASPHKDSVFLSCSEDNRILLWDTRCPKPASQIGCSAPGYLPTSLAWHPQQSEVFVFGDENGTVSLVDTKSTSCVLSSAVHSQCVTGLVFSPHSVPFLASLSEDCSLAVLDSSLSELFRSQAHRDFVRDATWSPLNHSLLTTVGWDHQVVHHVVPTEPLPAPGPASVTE

Data set [16] can be described thus: Plasma concentration in iv dosed Sprague-Dawley rat administered as single dose. The format is ADME, organism-based. As to conditions: in vivo.
A short description of data set [17]: Plasma concentration in po dosed Sprague-Dawley rat administered as single dose. In kind it is ADME, organism-based. As to conditions: in vivo.
For data set [18], the target named is T1, Protein arginine N-methyltransferase 5. The experiment in a line: Inhibition of human 6xHis-tagged PRMT5 expressed in bacterial expression system using histone H2A as substrate after 2 hrs in presence of by S-[methyl-3H]adenosylmethionine by liquid scintillation counting.

T1 sequence (O14744 whole entry): as the sequence (O14744 whole entry) above

Regarding `O=C(NC[C@H](O)CN1CCc2ccccc2C1)c1cc(NC2COC2)ncn1`, the inhibition in vivo at 200 mg/kg in data set [1] and in data set [3] was more than 93% each time. The same molecule gave a volume of distribution (Vd) in data set [2] of 1.7 L/kg. For the same molecule, the clearance in [4] is 30 mL/min/kg. The same molecule had a bioavailability in data set [5] of 69%.
In the case of `O=C(NC[C@H](O)CN1CCc2ccccc2C1)c1ccc(C(=O)N2CCOCC2)cc1`, the 50% inhibitory concentration (IC50) in [6] stood at 0.109 µM.
With `CCn1c2ccc(Br)cc2c2cc(CNCc3ccccc3OC)ccc21`, the 50% inhibitory concentration (IC50) in data set [7] came to 4 µM; in [8] it was 1.1 µM.
On to `CC(=O)N1CCC(Oc2nccc(C(=O)NC[C@@H](O)CNC3Cc4ccccc4C3)c2Cl)CC1`, for which the IC50 in data set [6] amounted to 0.105 µM.
Regarding `CCn1c2ccccc2c2cc(CNCc3ccccn3)ccc21`, the inhibition in data set [9] was found to be 7.8%.
Turning to `OCCNCc1cccc2ccccc12`, the inhibition in data set [10] came to 2%.
As for `OC(CNCc1c(OCc2ccccc2)ccc2ccccc12)c1ccccc1` (stereo not given), the EC50 in [11] is 10.5 µM; in data set [12], 12.7 µM; in data set [13], 12.7 µM.
Molecule `O=C(NC[C@H](O)CN1CCCCC1)c1cc(NC2COC2)ncn1` displayed a 50% inhibitory concentration (IC50) in [14] of more than 10 µM.
Regarding `OCCNCc1c(OCc2ccc(Cl)cc2)ccc2ccccc12`, the inhibition in data set [10] came out at 69%. Besides, the 50% inhibitory concentration (IC50) in data set [15] was 35.6 µM.
On to `CCn1c2ccccc2c2cc(CNC3CCCc4ccccc43)ccc21` (stereo not given), for which the concentration in [16] is 7.88 µM; in [17], 3.57 µM. In data set [18], the concentration for half-maximal inhibition (IC50) amounted to 0.517 µM.

The term Vd denotes the apparent volume that relates the amount in the body to the concentration in plasma or blood. Read a low Vd as confinement near the circulation. A word on the clearance: it is the rate of elimination divided by the concentration. A higher clearance goes with a high capacity for elimination. As usually defined, the bioavailability is the share of a dose that reaches the circulation, judged against a reference dose that is usually intravenous. Read a high bioavailability as good availability. Usually IC50 stands for the midpoint of a concentration-inhibition curve. A word on the inhibition: it is the percentage by which the read-out fell short of the control. The EC50 is the concentration that produces a half-maximal response. Low values mean higher potency in that assay, high ones lower potency in that assay.
